Measured values published in ChEMBL document CHEMBL2177100, “Structural optimization and structure-activity relationships of N2-(4-(4-Methylpiperazin-1-yl)phenyl)-N8-phenyl-9H-purine-2,8-diamine derivatives, a new class of reversible kinase inhibitors targeting both EGFR-activating and resistance mutations” (J Med Chem, 2012).
Activity calls are given as the source filed them. The rule behind the calls is not given here.

Legend:
[1] = Cytotoxicity against human HCC827 cells incubated for 72 hrs by MTT assay; assay type: functional, cell-based; conditions: HCC827, 72 h
NCI-H1975 [2] = assay: Cytotoxicity against human NCI-H1975 cells incubated for 72 hrs by MTT assay; assay type: functional, cell-based; conditions: NCI-H1975, 72 h
HepG2 = assay: Cytotoxicity against human HepG2 cells incubated for 72 hrs by MTT assay; assay type: functional, cell-based; conditions: HepG2, 72 h
HCC827 = assay: Antitumor activity against human HCC827 cells xenografted in BALB/c mouse assessed as reduction tumor volume at 100 mg/kg, po qd; assay type: functional, organism-based; parameters: dose 100 mg/kg
PC-9 = assay: Cytotoxicity against human PC9 cells incubated for 72 hrs by MTT assay; assay type: functional, cell-based; conditions: PC-9, 72 h
[3] = biological target: Epidermal growth factor receptor (Homo sapiens, UniProt P00533, L858R/T790M); assay: Inhibition of EGFR L858R/T790M mutant; assay type: protein assay
[4] = biological target: Epidermal growth factor receptor (Homo sapiens, UniProt P00533, L858R); assay: Inhibition of EGFR L858R mutant; assay type: protein assay
NCI-H1975 [5] = assay: Antitumor activity against human NCI-H1975 cells xenografted in BALB/c mouse assessed as inhibition of tumor growth at 20 mg/kg, po qd; assay type: functional; conditions: read-out: TGI
Mus musculus = assay: Toxicity in human NCI-H1975 cells xenografted BALB/c mouse assessed as body weight loss at 20 mg/kg, po qd; assay type: organism-based; parameters: dose 20 mg/kg, route oral; conditions: in vivo

Sequence of Epidermal growth factor receptor (Homo sapiens, UniProt P00533, L858R/T790M) (P00533 25-1210 T790M/L858R limits assumed): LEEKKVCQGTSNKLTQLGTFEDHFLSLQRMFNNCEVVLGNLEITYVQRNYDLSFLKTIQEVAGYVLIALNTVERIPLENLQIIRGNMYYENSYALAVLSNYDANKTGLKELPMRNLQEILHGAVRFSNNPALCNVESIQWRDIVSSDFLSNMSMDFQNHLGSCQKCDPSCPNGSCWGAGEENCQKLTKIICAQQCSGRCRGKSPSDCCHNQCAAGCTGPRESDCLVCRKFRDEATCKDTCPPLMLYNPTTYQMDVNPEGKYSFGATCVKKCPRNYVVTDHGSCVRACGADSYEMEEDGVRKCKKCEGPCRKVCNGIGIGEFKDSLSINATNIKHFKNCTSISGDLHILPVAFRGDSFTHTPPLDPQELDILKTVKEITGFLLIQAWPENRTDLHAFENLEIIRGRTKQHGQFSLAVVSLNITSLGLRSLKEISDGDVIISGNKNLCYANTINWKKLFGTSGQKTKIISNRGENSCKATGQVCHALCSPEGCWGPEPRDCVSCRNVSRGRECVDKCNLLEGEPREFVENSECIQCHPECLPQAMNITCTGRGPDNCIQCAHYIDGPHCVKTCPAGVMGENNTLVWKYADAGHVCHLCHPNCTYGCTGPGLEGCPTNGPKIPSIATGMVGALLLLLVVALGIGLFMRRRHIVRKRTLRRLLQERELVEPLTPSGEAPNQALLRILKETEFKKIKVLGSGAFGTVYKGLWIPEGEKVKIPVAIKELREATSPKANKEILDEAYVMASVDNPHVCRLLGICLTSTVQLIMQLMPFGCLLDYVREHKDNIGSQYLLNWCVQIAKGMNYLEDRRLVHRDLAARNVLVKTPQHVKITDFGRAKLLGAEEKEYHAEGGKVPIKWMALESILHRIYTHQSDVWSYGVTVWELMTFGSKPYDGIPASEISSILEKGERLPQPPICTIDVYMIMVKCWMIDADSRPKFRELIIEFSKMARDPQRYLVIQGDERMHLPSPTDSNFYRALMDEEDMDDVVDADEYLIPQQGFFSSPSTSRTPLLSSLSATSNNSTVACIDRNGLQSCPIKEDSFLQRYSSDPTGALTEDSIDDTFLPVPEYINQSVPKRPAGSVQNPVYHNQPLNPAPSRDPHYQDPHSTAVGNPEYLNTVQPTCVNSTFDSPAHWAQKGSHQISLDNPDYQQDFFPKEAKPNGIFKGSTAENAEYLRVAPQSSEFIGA
Sequence of Epidermal growth factor receptor (Homo sapiens, UniProt P00533, L858R) (P00533 25-1210 L858R limits assumed): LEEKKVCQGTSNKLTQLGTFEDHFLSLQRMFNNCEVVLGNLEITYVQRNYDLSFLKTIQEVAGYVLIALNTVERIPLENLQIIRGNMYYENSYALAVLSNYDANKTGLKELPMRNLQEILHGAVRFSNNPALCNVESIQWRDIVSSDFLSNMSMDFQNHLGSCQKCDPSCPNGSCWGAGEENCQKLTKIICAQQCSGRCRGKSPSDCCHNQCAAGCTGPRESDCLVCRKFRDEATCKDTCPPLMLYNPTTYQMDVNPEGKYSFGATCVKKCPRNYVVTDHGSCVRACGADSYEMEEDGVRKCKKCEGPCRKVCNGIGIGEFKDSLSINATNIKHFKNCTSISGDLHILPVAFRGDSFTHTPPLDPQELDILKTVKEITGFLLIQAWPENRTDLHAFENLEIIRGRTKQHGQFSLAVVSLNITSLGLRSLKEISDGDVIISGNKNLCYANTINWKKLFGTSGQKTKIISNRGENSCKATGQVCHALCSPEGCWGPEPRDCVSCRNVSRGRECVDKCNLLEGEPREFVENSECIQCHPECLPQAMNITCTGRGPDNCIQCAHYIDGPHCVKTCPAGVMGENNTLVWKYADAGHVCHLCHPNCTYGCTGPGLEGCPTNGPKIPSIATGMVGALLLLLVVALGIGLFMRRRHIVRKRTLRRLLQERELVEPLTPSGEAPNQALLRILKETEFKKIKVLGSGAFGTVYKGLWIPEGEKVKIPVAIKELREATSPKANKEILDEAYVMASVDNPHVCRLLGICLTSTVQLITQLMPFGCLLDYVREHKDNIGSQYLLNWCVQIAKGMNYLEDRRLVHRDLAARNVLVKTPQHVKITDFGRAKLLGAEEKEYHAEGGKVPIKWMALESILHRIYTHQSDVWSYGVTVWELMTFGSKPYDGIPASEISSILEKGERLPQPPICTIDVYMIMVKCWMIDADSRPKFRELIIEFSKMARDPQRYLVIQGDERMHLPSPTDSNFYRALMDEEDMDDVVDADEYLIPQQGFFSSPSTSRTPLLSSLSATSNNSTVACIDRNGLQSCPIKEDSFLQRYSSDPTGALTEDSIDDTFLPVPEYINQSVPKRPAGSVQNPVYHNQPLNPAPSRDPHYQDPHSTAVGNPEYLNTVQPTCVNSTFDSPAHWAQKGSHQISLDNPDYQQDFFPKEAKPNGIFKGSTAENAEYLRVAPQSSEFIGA

SMILES | IC50 [1] [nM] | IC50 (NCI-H1975 [2]) [nM] | IC50 (HepG2) [nM] | also measured
CN1CCN(c2ccc(Nc3ncc4nc(Nc5cccc([N+](=O)[O-])c5)n(C5CCCC5)c4n3)cc2)CC1 | < 0.01 | 980 | > 5000 | 
CN1CCN(c2ccc(Nc3ncc4nc(Nc5ccccc5)n(C5CC5)c4n3)cc2)CC1 | 18 | 2860 | > 5000 | 
CN1CCN(c2ccc(Nc3ncc4nc(Nc5cc(Cl)ccc5Cl)n(C5CCCC5)c4n3)cc2)CC1 | 0.01 | 2540 | > 5000 | 
c1ccc(Nc2nc3cnc(Nc4ccc(N5CCOCC5)cc4)nc3n2C2CCCC2)cc1 | 0.66 | 9200 | > 5000 | 
CC(=O)Nc1ccc(Nc2ncc3nc(Nc4ccccc4)n(C4CCCC4)c3n2)cc1 | 0.47 | 1210 | > 5000 | 
CC1CCN(c2ccc(Nc3ncc4nc(Nc5ccccc5)n(C5CCCC5)c4n3)cc2)CC1 | 32 | 9800 | > 5000 | 
CN1CCN(c2ccc(Nc3ncc4nc(Nc5cccc(NC(=O)c6ccccc6)c5)n(C5CCCC5)c4n3)cc2)CC1 | 15 | 2120 | 2600 | 
CN1CCN(c2ccc(Nc3ncc4nc(Nc5ccc(Br)cc5)n(C5CCCC5)c4n3)cc2)CC1 | 2.2 | 2090 | > 5000 | 
CN1CCN(c2ccc(Nc3ncc4nc(Nc5ccccc5)n(-c5ccccc5)c4n3)cc2)CC1 | 1.7 | 1830 | > 5000 | 
CN1CCN(c2ccc(Nc3ncc4nc(Nc5ccccc5)n(C)c4n3)cc2)CC1 | 24 | 6060 | > 5000 | 
CN1CCN(c2ccc(Nc3ncc4nc(Nc5ccc(Br)cc5F)n(C5CCCC5)c4n3)cc2)CC1 | 2.3 | 1120 | > 5000 | 
CN1CCN(c2ccc(Nc3ncc4nc(Nc5ccccc5)n(C5CCCCC5)c4n3)cc2)CC1 | < 0.01 | 390 | > 5000 | 
c1ccc(Nc2ncc3nc(Nc4ccccc4)n(C4CCCC4)c3n2)cc1 | 2.7 | > 10000 | > 5000 | 
COc1cc2ncnc(Nc3ccc(F)c(Cl)c3)c2cc1OCCCN1CCOCC1 [GEFITINIB] |  |  |  | TGI (HCC827): Active; IC50 (PC-9): 14 nM
OCCNc1ccc(Nc2ncc3nc(Nc4ccccc4)n(C4CCCC4)c3n2)cc1 | 2.8 | 2810 | > 5000 | 
Cc1cccc(Nc2nc3cnc(Nc4ccc(N5CCN(C)CC5)cc4)nc3n2C2CCCC2)c1 | < 0.01 | 560 | 4700 | 
CN1CCN(c2ccc(Nc3ncc4nc(Nc5cccc(O)c5)n(C5CCCC5)c4n3)cc2)CC1 | 0.72 | 1020 | 4200 | 
CN1CCN(c2ccc(Nc3ncc4nc(Nc5ccccc5)[nH]c4n3)cc2)CC1 | 233 | 18100 | > 5000 | IC50 [3]: 978 nM; IC50 [4]: 98 nM
C#Cc1cccc(Nc2nc3cnc(Nc4ccc(N5CCN(C)CC5)cc4)nc3n2C2CCCC2)c1 | < 0.01 | 650 | 4900 | 
Cc1cc(C)cc(-n2c(Nc3ccccc3)nc3cnc(Nc4ccc(N5CCN(C)CC5)cc4)nc32)c1 | 1 | 1910 | > 5000 | 
CN1CCN(c2ccc(Nc3ncc4nc(Nc5cccc(Cl)c5)n(C5CCCC5)c4n3)cc2)CC1 | < 0.01 | 390 | 4800 | 
CN(C)C/C=C/C(=O)Nc1cc2c(Nc3ccc(F)c(Cl)c3)ncnc2cc1O[C@H]1CCOC1 [AFATINIB] |  |  |  | inhibition in vivo at 20 mg/kg (NCI-H1975 [5]): 74%; Activity (Mus musculus): 6.6%
CN1CCN(c2ccc(Nc3ncc4nc(Nc5cccc(C(=O)Nc6ccc(Cl)cc6)c5)n(C5CCCC5)c4n3)cc2)CC1 | 2900 | 4010 | > 5000 | 
CC(C)n1c(Nc2ccccc2)nc2cnc(Nc3ccc(N4CCN(C)CC4)cc3)nc21 | 0.1 | 960 | > 5000 | 
